SMILES strings stand for the structures.

Results on 38 compounds are retold here after patent publication US12691101B2, “Compound and method for preventing or treating of respiratory diseases comprising the same as an active ingredient” (YONSEI UNIVERSITY, UNIVERSITY - INDUSTRY FOUNDATION (UIF), priority 2019, dated 2026).

For the first assay, the target named is T1, human wild-type (WT)-pendrin (Homo sapiens, UniProt O43511).
T1 construct: expressed in transfected cells
T1 sequence (O43511 1-780): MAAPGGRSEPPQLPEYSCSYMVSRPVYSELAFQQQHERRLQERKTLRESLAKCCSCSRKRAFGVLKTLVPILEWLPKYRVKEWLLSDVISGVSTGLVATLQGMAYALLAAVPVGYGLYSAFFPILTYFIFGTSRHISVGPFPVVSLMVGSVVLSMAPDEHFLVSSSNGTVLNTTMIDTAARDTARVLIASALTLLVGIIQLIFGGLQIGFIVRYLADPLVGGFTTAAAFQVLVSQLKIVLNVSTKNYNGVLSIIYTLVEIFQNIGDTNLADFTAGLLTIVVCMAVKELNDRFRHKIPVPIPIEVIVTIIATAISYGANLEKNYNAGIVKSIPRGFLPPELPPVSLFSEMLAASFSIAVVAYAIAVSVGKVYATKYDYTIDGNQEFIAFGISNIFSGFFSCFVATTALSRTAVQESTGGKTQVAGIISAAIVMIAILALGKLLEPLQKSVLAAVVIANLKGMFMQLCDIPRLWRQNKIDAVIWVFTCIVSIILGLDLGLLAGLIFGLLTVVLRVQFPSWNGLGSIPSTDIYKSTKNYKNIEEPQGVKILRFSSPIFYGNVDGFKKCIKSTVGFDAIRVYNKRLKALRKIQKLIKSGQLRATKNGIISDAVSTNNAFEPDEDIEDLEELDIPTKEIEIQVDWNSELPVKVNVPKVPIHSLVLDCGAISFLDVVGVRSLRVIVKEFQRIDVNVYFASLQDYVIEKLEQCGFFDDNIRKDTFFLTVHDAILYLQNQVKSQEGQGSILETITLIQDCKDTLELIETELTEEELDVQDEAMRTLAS
In words: Pendrin-mediated Cl^−/I^− exchange activity, YFP fluorescence in CHO-K1 cells. Type of assay: cell-based. As to conditions: 30 μM.
As for `COC(=O)C(=Cc1ccc[nH]1)NC(=O)c1ccc(C(C)(C)C)cc1` [G23, Methyl-2-(4-(tert-butyl)benzamido)-3-(1H-pyrrol-2-yl)acrylate], the “Pendrin inhibitory activity at 30 μM (%)” value was found to be 2.7%.

The same assay, now with this note: CHO-K1, 30 μM; read-out: Pendrin inhibitory activity at 30 μM (%).
Regarding `CC(C)(C)c1ccc(C(=O)NC(=Cc2cc3ccccc3[nH]2)C(=O)O)cc1` [G33, 2-(4-(tert-butyl)benzamido)-3-(1H-indol-2-yl)acrylate], the inhibition at 30 µM amounted to 5.4%.

For `CC(C)Cc1ccc(C2=NC(=Cc3ccsc3)C(=O)O2)cc1` [F15, 2-(4-Isobutylphenyl)-4-(thiophen-3-ylmethylene)oxazol-5 (4H)-one], the inhibition at 30 µM is 3.8%.

Consider `CN(C)c1ccc(C=C2N=C(c3sc4ccccc4c3Cl)OC2=O)cc1` [F59, 2-(3-Chlorobenzo[b]thiophen-2-yl)-4-(4-(dimethylamino)benzylidene)oxazol-5(4H)-one], for which the inhibition at 30 µM came out at 1.8%.

Take `O=C(O)C(=Cc1cccs1)NC(=O)c1ccc2c(c1)CCC2` [G38, 2-(2,3-Dihydro-1H-indene-5-carboxamido)-3-(thiophen-2-yl)acrylate]: the inhibition at 30 µM amounted to 2.5%. Same read-out and setting: with `O=C1OC(c2ccccc2)=NC1=Cc1cccn1Cc1ccccc1Cl` [F65, 4-((1-(2-Chlorobenzyl)-1H-pyrrol-2-yl)methylene)-2-phenyloxazol-5(4H)-one] the figure was 1.7%; with `O=C1OC(c2cccs2)=NC1=Cc1cccs1` [F89, 2-(Thiophen-2-yl)-4-(thiophen-2-ylmethylene)oxazol-5(4H)-one], 2.8%; with `CC(C)(C)OC(=O)C(=Cc1ccc[nH]1)NC(=O)c1ccc(C(C)(C)C)cc1` [G6, tert-butyl 2-(4-(tert-butyl)benzamido)-3-(1H-pyrrol-2-yl)acrylate], 4.7%. For the compound `CC(C)(C)c1ccc(C(=O)Oc2ccc(C=C3N=C(c4ccccc4Cl)OC3=O)cc2)cc1` [F67, 4-((2-(2-Chlorophenyl)-5-oxooxazol-4(5H)-ylidene)methyl)phenyl4-(tert-butyl)benzoate], the inhibition at 30 µM is 3.2%. Still for that read-out and setting: with `CC(=O)n1cc(C=C2N=C(c3ccc(C(C)(C)C)cc3)OC2=O)c(-c2ccccc2)n1` [F82, 4-((1-Acetyl-3-phenyl-1H-pyrazol-4-yl)methylene)-2-(4-(tert-butyl)phenyl)oxazol-5 (4H)-one] the figure was 2.7%; with `COc1ccccc1C1=NC(=Cc2ccc(N(C)C)s2)C(=O)O1` [F114, 4-((5-(Dimethylamino)thiophen-2-yl)methylene)-2-(2-methoxyphenyl)oxazol-5(4H)-one], 3.9%. For the compound `COC(=O)c1ccc(C2=NC(=Cc3ccco3)C(=O)O2)cc1` [F31, Methyl 4-(4-(furan-2-ylmethylene)-5-oxo-4,5-dihydrooxazol-2-yl)benzoate], the inhibition at 30 µM was determined as 4.2%.

Consider `COC(=O)C(=Cc1cccs1)NC(=O)c1ccc(C(C)(C)C)cc1` [G2, Methyl 2-(4-(tert-butyl)benzamido)-3-(thiophen-2-yl)acrylate], for which the inhibition at 30 µM is 3.8%. The same measure, in the same setting: with `O=C1OC(c2ccccc2I)=NC1=Cc1ccc(-n2cncn2)cc1` [F132, 4-(4-(1H-1,2,4-thiazol-1-yl)benzylidene)-2-(2-iodophenyl)oxazol-5(4H)-one] the figure was 3.9%; with `CCN(CC)S(=O)(=O)c1ccc(C2=N/C(=C3\C=CC=CN3C)C(=O)O2)cc1` [F127, N,N-diethyl-4-(4-(1-methylpyridin-2(1H)-ylidene)-5-oxo-4,5-dihydrooxazol-2-yl)benzenesulfonamide], 3.6%; with `COC(=O)c1ccc(C2=NC(=Cc3ccsc3)C(=O)O2)cc1` [F32, Methyl 4-(5-oxo-4-(thiophen-3-ylmethylene)-4,5-dihydrooxazol-2-yl)benzoate], 3.7%. In the case of `CCCc1ccc(C2=NC(=Cc3ccco3)C(=O)O2)cc1` [F146, 4-(Furan-2-ylmethylene)-2-(4-propylphenyl)oxazol-5(4H)-one], the inhibition at 30 µM stood at 26.1%. Regarding `CCCCc1ccc(C(=O)NC(=Cc2cccs2)C(=O)O)cc1` [G12, 2-(4-Butylbenzamido)-3-(thiophen-2-yl)acrylate], the inhibition at 30 µM stood at 48.1%. On to `Cc1ccc(C=C2N=C(c3ccc(S(=O)(=O)NC(C)(C)C)cc3)OC2=O)o1` [F126, N-(tert-butyl)-4-(4-((5-methylfuran-2-yl)methylene)-5-oxo-4,5-dihydrooxazol-2-yl) benzenesulfonamide], for which the inhibition at 30 µM worked out at 2.5%. Take `O=C1OC(Cc2ccc(-c3ccccc3)cc2)=NC1=Cc1cccs1` [F28, 2-([1,1′-biphenyl]-4-ylmethyl)-4-(thiophen-2-ylmethylene)oxazol-5 (4H)-one]: the inhibition at 30 µM was 2.2%. In the case of `Cn1cc(C=C2N=C(c3ccc(C(C)(C)C)cc3)OC2=O)cn1` [F39, 2-(4-(tert-butyl)phenyl)-4-((1-methyl-1H-pyrazol-4-yl)methylene)oxazol-5(4H)-one], the inhibition at 30 µM is 58.8%. The same measure, in the same setting: with `COc1ccc(C2=NC(=Cc3ccc(C(=O)O)cc3)C(=O)O2)cc1` [F60, 4-((2-(4-Methoxyphenyl)-5-oxooxazol-4(5H)-ylidene)methyl)benzoate] the figure was 3.1%. On to `CCCCCCc1ccc(C2=NC(=Cc3cccs3)C(=O)O2)cc1` [F139, 2-(4-Hexylphenyl)-4-(thiophen-2-ylmethylene)oxazol-5 (4H)-one], for which the inhibition at 30 µM was 2.5%.

For `CCCCc1ccc(C2=NC(=Cc3ccc[nH]3)C(=O)O2)cc1` [F26, 4-((1H-pyrrol-2-yl)methylene)-2-(4-butylphenyl)oxazol-5(4H)-one], the inhibition at 30 µM was 69.9%. The same measure, in the same setting: with `CC(=O)Oc1ccc(C2=NC(=Cc3cccs3)C(=O)O2)cc1` [F90, 4-(5-Oxo-4-(thiophen-2-ylmethylene)-4,5-dihydrooxazol-2-yl)phenylacetate] the figure was 3.3%.

`CC(C)(C)c1ccc(C(=O)NC(=Cc2ccsc2)C(=O)O)cc1` [G8, 2-(4-(tert-butyl)benzamido)-3-(thiophen-3-yl)acrylate]: the inhibition at 30 µM amounted to 68.8%. The same measure, in the same setting: with `Cc1cc(C)cc(C2=NC(=Cc3ccc[nH]3)C(=O)O2)c1` [F149, 4-((1H-pyrrol-2-yl)methylene)-2-(3,5-dimethylphenyl)oxazol-5(4H)-one] the figure was 4.8%; with `COC(=O)C(=Cc1ccc[nH]1)NC(=O)c1ccc(C(F)(F)F)cc1` [G15, Methyl 3-(1H-pyrrol-2-yl)-2-(4-(trifluoromethyl)benzamido)acrylate], 3.4%; with `CC(=O)Nc1ccc(S(=O)(=O)Oc2ccccc2C=C2N=C(c3ccc(Cl)cc3)OC2=O)cc1` [F77, 2-((2-(4-Chlorophenyl)-5-oxooxazol-4(5H)-ylidene)methyl)phenyl4-acetamido benzenesulfonate], 2.6%. Consider `CC(C)(C)c1ccc(C2=NC(=Cc3cc4ccccc4s3)C(=O)O2)cc1` [F11, 4-(Benzo[b]thiophen-2-ylmethylene)-2-(4-(tert-butyl)phenyl)oxazol-5 (4H)-one], for which the inhibition at 30 µM turned out to be 3.6%.

In the case of `COc1ccccc1C1=NC(=Cc2cnn(C(C)(C)C)c2)C(=O)O1` [F136, 4-((1-(tert-butyl)-1H-pyrazol-4-yl)methylene)-2-(2-methoxyphenyl)oxazol-5(4H)-one], the inhibition at 30 µM amounted to 2.4%.

Consider `CN(C)c1ccc(C=C2N=C(c3ccc4ccccc4c3)OC2=O)s1` [F105, 4-((5-(Dimethylamino)thiophen-2-yl)methylene)-2-(naphthalen-2-yl)oxazol-5(4H)-one], for which the inhibition at 30 µM was 3.1%.

Regarding `COc1ccccc1C1=NC(=Cc2ccc(Br)s2)C(=O)O1` [F117, 4-((5-Bromothiophen-2-yl)methylene)-2-(2-methoxyphenyl)oxazol-5(4H)-one], the inhibition at 30 µM was found to be 2.3%. The same measure, in the same setting: with `CCCCCCc1ccc(C2=NC(=Cc3ccc[nH]3)C(=O)O2)cc1` [F147, 4-((1H-pyrrol-2-yl)methylene)-2-(4-hexylphenyl)oxazol-5(4H)-one] the figure was 3.4%. For `CC(C)(C)c1ccc(C2=NC(=Cc3ccccc3OS(=O)(=O)c3ccccc3)C(=O)O2)cc1` [F80, 2-((2-(4-(tert-butyl)phenyl)-5-oxooxazol-4(5H)-ylidene)methyl)phenylbenznesulfonate], the inhibition at 30 µM was 1.9%. On the same count and under the same terms, with `CN(C)S(=O)(=O)c1cccc(C2=NC(=Cc3cccs3)C(=O)O2)c1` [F116, N,N-dimethyl-3-(5-oxo-4-(thiophen-2-ylmethylene)-4,5-dihydrooxazol-2-yl) benzenesulfonamide] the figure was 2.6%; with `O=C1OC(c2ccc3c(c2)CCC3)=NC1=Cc1cccs1` [F29, 2-(2,3-dihydro-1H-indene-5-yl)-4-(thiophen-2-ylmethylene)oxazol-5 (4H)-one], 3.3%.

As for `CC(C)(C)c1ccc(C2=NC(=Cc3cncs3)C(=O)O2)cc1` [F2, 2-(4-(tert-butyl)phenyl)-4-(thiazol-5-ylmethylene)oxazol-5(4H)-one], the inhibition at 30 µM worked out at 57.5%.

The assay is the same for the next values; noted with them: compounds showing pendrin inhibitory activity of 50% or more at 30 μM; read-out: IC50.
As to `Cn1cc(C=C2N=C(c3ccc(C(C)(C)C)cc3)OC2=O)cn1` [F39, 2-(4-(tert-butyl)phenyl)-4-((1-methyl-1H-pyrazol-4-yl)methylene)oxazol-5(4H)-one], the concentration for half-maximal inhibition (IC50) (usually the concentration that gives 50% inhibition) worked out at 25.8 ± 2.16 µM.

In the case of `CCCCc1ccc(C2=NC(=Cc3ccc[nH]3)C(=O)O2)cc1` [F26, 4-((1H-pyrrol-2-yl)methylene)-2-(4-butylphenyl)oxazol-5(4H)-one], the concentration for half-maximal inhibition (IC50) came to 12.8 ± 1.55 µM. Same read-out and setting: with `CC(C)(C)c1ccc(C(=O)NC(=Cc2ccsc2)C(=O)O)cc1` [G8, 2-(4-(tert-butyl)benzamido)-3-(thiophen-3-yl)acrylate] the figure was 20.2 ± 2.12 µM; with `CC(C)(C)c1ccc(C2=NC(=Cc3cncs3)C(=O)O2)cc1` [F2, 2-(4-(tert-butyl)phenyl)-4-(thiazol-5-ylmethylene)oxazol-5(4H)-one], 26.9 ± 2.95 µM.
